US5482960A, “Nonpeptide endothelin antagonists” (Warner-Lambert Company, priority 1994, dated 1996)

Tests used:
recombinant human ETB R = target: T1, recombinant human ETB R (Homo sapiens, UniProt P24530); type: binding; details: [125I]-ET-1 40 pM, 2 hours at 37° C., CHO-K1 cells, read-out: HERBA-B IC50
T1 construct: expressed in transfected cells; host or cells: CHO-K1 cells (membranes)
T1 sequence (P24530 27-442): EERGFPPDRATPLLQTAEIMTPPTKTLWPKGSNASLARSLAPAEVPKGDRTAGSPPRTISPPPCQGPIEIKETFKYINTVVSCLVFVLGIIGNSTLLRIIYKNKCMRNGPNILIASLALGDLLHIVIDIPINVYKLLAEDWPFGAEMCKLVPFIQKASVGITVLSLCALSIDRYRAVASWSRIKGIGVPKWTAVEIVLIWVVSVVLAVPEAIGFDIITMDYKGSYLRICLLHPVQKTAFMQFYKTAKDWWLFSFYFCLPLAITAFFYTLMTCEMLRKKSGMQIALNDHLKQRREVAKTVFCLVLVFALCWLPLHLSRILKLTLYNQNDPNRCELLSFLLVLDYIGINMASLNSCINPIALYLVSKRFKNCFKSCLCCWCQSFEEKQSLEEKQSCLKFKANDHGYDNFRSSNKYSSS
Experimental: (§1) Membranes were prepared from cultured cells by lysing cells in cold lysis buffer (5 mM HEPES, 2 mM EDTA, pH 7.4) and homogenizing with a Dounce "A" homogenizer. The homogenate was centrifuged at 30,000×g for 20 min at 4° C. […] Radioligand and competing ligands were prepared in binding buffer containing 20 mM Tris, 2 mM EDTA, and 0.1% BSA.

recombinant human ETA R = target: T2, recombinant human ETA R (Homo sapiens, UniProt P25101); type: binding; details: [125I]-ET-1 40 pM, 2 hours at 37° C., Ltk- cells, read-out: HERBA-A IC50
T2 construct: expressed in transfected cells; host or cells: Ltk- cells (membranes)
T2 sequence (P25101 21-427): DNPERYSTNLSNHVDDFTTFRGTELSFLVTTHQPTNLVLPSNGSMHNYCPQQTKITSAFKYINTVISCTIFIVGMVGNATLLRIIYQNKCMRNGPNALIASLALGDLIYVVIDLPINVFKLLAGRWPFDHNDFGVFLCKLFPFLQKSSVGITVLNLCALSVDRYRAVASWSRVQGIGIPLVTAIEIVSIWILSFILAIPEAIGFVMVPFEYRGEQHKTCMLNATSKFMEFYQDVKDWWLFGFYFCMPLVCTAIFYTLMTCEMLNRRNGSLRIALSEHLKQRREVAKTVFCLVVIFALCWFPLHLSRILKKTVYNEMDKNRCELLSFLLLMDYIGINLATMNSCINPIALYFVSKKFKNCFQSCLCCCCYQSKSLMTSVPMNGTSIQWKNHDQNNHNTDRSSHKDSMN
Experimental: as §1

[1] = target: T3, ETA (rabbit renal artery vascular smooth muscle cells) (Oryctolagus cuniculus, UniProt A5A8K3); type: binding; details: [125I]-ET-1 40 pM, 2 hours at 37° C.; read-out: ERBA-A IC50 (converted)
T3 construct: rabbit renal artery vascular smooth muscle cells (ERBA-A); endogenous in cells; host or cells: cultured rabbit renal artery vascular smooth muscle cells (membranes)
T3 sequence (A5A8K3 21-427): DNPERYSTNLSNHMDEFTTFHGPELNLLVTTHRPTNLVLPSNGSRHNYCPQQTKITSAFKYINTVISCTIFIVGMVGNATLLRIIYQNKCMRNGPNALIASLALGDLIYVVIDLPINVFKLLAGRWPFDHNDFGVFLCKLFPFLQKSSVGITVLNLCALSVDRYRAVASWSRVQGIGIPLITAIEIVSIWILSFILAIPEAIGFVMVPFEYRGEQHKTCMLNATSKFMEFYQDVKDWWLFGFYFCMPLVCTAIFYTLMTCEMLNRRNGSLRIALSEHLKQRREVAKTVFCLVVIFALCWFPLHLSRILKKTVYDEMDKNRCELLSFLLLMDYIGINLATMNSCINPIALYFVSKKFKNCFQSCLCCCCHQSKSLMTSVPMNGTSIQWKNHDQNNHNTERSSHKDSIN
Experimental: as §1, with “The compounds of Formula I are valuable antagonists of endothelin. […] Membranes” for “Membranes”, “BSA. Competing binding assays were initiated by combining membranes, [125I]-ET-1 (40 pM) and the competing ligand in a final volume of 250 uL and incubating for 2 hours at 37° C.” for “BSA.”

[2] = test system: porcine pulmonary arteries; details: isolated, endothelium-intact porcine pulmonary arteries; cited from earlier work
[3] = target: T4, rabbit femoral artery (ETA) (Oryctolagus cuniculus, UniProt A5A8K3); assay: In vitro antagonism of ET-1 stimulated vasoconstriction (VERA-A) in the rabbit femoral artery (ETA); type: cell-based
T4 construct: Femoral and pulmonary arteries were isolated, cleaned of connective tissue, and cut into 4-mm rings; from tissue; host or cells: rabbit femoral artery rings, endothelium denuded
T4 sequence (A5A8K3 21-427): T3 sequence (A5A8K3 21-427)
Experimental: (§2) Male New Zealand rabbits were killed by cervical dislocation and exsanguination. Femoral and pulmonary arteries were isolated, cleaned of connective tissue, and cut into 4-mm rings. The endothelium was denuded by placing the rings over hypodermic tubing (32 gauge for femoral rings and 28 gauge for pulmonary rings, Small Parts, Inc, Miami, Fla.) and gently rolling them. […] Resting tension was adjusted to 3.0 g for femoral and 4.0 g pulmonary arteries; the rings were left for 90 minutes to equilibrate.

[4] = target: T5, rabbit pulmonary artery (ETB) (Oryctolagus cuniculus, UniProt Q9N0W7); assay: Antagonism of sarafotoxin 6c stimulated vasoconstriction in the rabbit pulmonary artery (ETB) (VERA-B); type: cell-based
T5 construct: Femoral and pulmonary arteries were isolated, cleaned of connective tissue, and cut into 4-mm rings; from tissue; host or cells: rabbit pulmonary artery rings, endothelium denuded
T5 sequence (Q9N0W7 27-441): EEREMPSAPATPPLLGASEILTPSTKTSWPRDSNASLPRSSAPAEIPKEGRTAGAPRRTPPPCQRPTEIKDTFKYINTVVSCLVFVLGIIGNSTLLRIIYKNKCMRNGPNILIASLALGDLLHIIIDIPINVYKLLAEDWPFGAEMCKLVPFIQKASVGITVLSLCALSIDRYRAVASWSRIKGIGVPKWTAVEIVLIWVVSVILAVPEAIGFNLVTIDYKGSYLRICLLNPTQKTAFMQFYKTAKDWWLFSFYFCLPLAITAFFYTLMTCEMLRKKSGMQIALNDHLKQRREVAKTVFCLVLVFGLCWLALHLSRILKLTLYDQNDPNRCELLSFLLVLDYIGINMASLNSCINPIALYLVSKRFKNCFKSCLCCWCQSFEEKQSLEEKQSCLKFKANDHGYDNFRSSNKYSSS
Experimental: as §2

COc1cccc(Sc2c(C(=O)O)n(Cc3cc(OC)c4c(c3)OCO4)c3cc4c(cc23)OCO4)c1 [Example 7, 5-(7-Methoxy-benzo[1,3]dioxol-5-ylmethyl)-7-(3-methoxy-phenylsulfanyl)-5H-[1,3]dioxolo[4,5-f]indole-6carboxylic acid]
IC50 (recombinant human ETB R): 2900 nM
IC50 (recombinant human ETA R): 380 nM

O=C(O)c1c(Sc2ccccc2)c2ccccc2n1-c1ccc2c(c1)OCO2 [Example 1, 1-Benzo-[1,3]dioxol-5-yl-3-phenylsulfanyl-1H-indole-2-carboxylic acid]
IC50 [1]: 1900 nM
IC50 (recombinant human ETB R): 6500 nM
IC50 (recombinant human ETA R): 3200 nM

ET[1,3,11,15-A1a]: selective ETB agonist, linear analog (ASASSLMDKEAVYFAHLDIIW; Endothelin-1; UniProt P05305 53-73, looked up, variant C1A C3A C11A C15A)
vasorelaxation [2]: caused vasorelaxation

COc1cc2c(Sc3ccc4c(c3)OCO4)c(C(=O)O)n(Cc3ccc4c(c3)OCO4)c2cc1OC [Example 17, 1-Benzo[1,3]dioxol-5-ylmethyl-3-(benzo[1,3]dioxol-5-ylsulfanyl)-5,6-dimethoxy-1H-indole-2-carboxylic acid]
IC50 [1]: 631 nM
IC50 [3]: 50.1 nM

COc1ccc(Sc2c(C(=O)O)n(Cc3cc(OC)c4c(c3)OCO4)c3cc4c(cc23)OCO4)cc1OC [Example 9, 7-(3,4-Dimethoxy-phenylsulfanyl)-5-(7-methoxy-benzo[1,3]dioxol-5-ylmethyl)-5H-[1,3]dioxolo[4,5-f]indole-6-carboxylic acid]
IC50 (recombinant human ETB R): 420 nM
IC50 (recombinant human ETA R): 170 nM

COc1cccc(Sc2c(C(=O)O)n(Cc3cc(OC)c4c(c3)OCO4)c3cc(OC)c(OC)cc23)c1 [Example 11, 5,6-Dimethoxy-1-(7-methoxy-benzo[1,3]dioxol-5-ylmethyl)-3-(3-methoxy-phenylsulfanyl)-1H-indole-2carboxylic acid]
IC50 (recombinant human ETB R): 1100 nM
IC50 (recombinant human ETA R): 58 nM

O=C(O)c1c(Sc2ccc3c(c2)OCO3)c2ccccc2n1Cc1ccc2c(c1)OCO2 [Example 5, 1-Benzo[1,3]dioxol-5-ylmethyl-3-(benzo[1,3]dioxol-5-ylsulfanyl)-1H-indole-2-carboxylic acid]
IC50 [1]: 570 nM
IC50 (recombinant human ETB R): 4500 nM
IC50 (recombinant human ETA R): 380 nM

CCCOc1ccc2c(Sc3cccc(OC)c3)c(C(=O)O)n(Cc3ccc4c(c3)OCO4)c2c1 [Example 10, 1-Benzo[1,3]dioxol-5-ylmethyl-3-(3-methoxy-phenylsulfanyl)-6-propoxy-1H-indole-2-carboxylic acid]
IC50 (recombinant human ETB R): 6700 nM
IC50 (recombinant human ETA R): 590 nM

COc1cccc(Sc2c(C(=O)O)n(Cc3ccc4c(c3)OCO4)c3cc(OC)c(OC)cc23)c1 [Example 2]
IC50 [1]: 30 nM
IC50 (recombinant human ETB R): 1100 nM
IC50 [3]: 100 nM

COc1cccc(Sc2c(C(=O)O)n(Cc3ccccc3)c3ccccc23)c1 [Example 4, 1-Benzyl-3-(3-methoxy-phenylsulfanyl)-1H-indole-2carboxylic acid]
IC50 [1]: 7300 nM
IC50 (recombinant human ETB R): 1500 nM
IC50 (recombinant human ETA R): 4600 nM

COc1cc2c(Sc3cc(OC)c(OC)c(OC)c3)c(C(=O)O)n(Cc3ccc4c(c3)OCO4)c2cc1OC [Example 14, 1-Benzo[1,3]dioxol-5-ylmethyl-5,6-dimethoxy-3-(3,4,5-trimethoxy-phenylsulfanyl)-1H-indole-2-carboxylic acid]
IC50 [3]: 31.6 nM
IC50 [4]: 3160 nM

COc1ccc(Sc2c(C(=O)O)n(Cc3ccc4c(c3)OCO4)c3cc4c(cc23)OCO4)cc1OC [Example 8, 5-Benzo [1,3]dioxo1-5-ylmethyl-7-(3,4-dimethoxyphenylsulfanyl)-5H-[1,3]dioxolo[4,5-f]indole-6-carboxylicacid]
IC50 (recombinant human ETB R): 170 nM
IC50 (recombinant human ETA R): 39 nM
IC50 [3]: 316 nM
IC50 [4]: 316 nM

COc1cccc(Sc2c(C(=O)O)n(Cc3ccc(OC)cc3OCC(=O)O)c3cc(OC)c(OC)cc23)c1 [Example 16, 1-(2-Carboxymethoxy-4-methoxy-benzyl)-5,6-dimethoxy-3-(3-methoxy-phenylsulfanyl)-1H-indole-2carboxylic acid]
IC50 (recombinant human ETB R): 1200 nM
IC50 (recombinant human ETA R): 480 nM

COc1cc2c(Sc3ccc4c(c3)OCO4)c(C(=O)O)n(Cc3ccc4c(c3)OCO4)c2cc1OCc1ccccc1 [Example 15, 1-Benzo[1,3]dioxol-5-ylmethyl-3-(benzo[1,3]dioxol-5-ylsulfanyl)-6-benzyloxy-5-methoxy-1H-indole-2-carboxylic acid]
IC50 (recombinant human ETB R): 53 nM
IC50 (recombinant human ETA R): 690 nM

COc1ccc(Cn2c(C(=O)O)c(Sc3cccc(OC)c3)c3cc(OC)c(OC)cc32)cc1 [Example 12, 5,6-Dimethoxy-1-(4-methoxy-benzyl)-3-(3-methoxy-phenylsulfanyl)-1H-indole-2-carboxylic acid]
IC50 (recombinant human ETB R): 870 nM
IC50 (recombinant human ETA R): 160 nM

COc1cccc(Sc2c(C(=O)O)n(Cc3ccc4c(c3)OCO4)c3ccccc23)c1 [Example 3, 1-Benzo[1,3]dioxol-5-ylmethyl-3-(3-methoxy-phenylsulfanyl)-1H-indole-2-carboxylic acid]
IC50 [1]: 500 nM
IC50 (recombinant human ETB R): 7400 nM
IC50 (recombinant human ETA R): 90 nM

COc1cccc(Sc2c(C(=O)O)n(Cc3ccc4c(c3)OCO4)c3cc4c(cc23)OCO4)c1 [Example 6, 5-Benzo[1,3]dioxol-5-ylmethyl-7-(3-methoxy-phenylsulfanyl)-5H-[1,3]dioxolo[4,5-f]indole-6-carboxylic acid]
IC50 (recombinant human ETB R): 710 nM
IC50 (recombinant human ETA R): 84 nM

COc1cccc(Sc2c(C(=O)O)n(Cc3ccc4c(c3)OCO4)c3cc(OC)c(OCc4ccccc4)cc23)c1 [Example 13, 1-Benzo[1,3]dioxol-5-ylmethyl-5-benzyloxy-6-methoxy-3-(3-methoxy-phenylsulfanyl)-1H-indole-2-carboxylic acid]
IC50 (recombinant human ETB R): 690 nM
IC50 (recombinant human ETA R): 81 nM
